Test results reported in patent US10160763B2, “WDR5 inhibitors and modulators” (Vanderbilt University, priority 2016, dated 2018).

Each compound was assayed against WDR5 (Δ23, residues 24-334) (Homo sapiens, UniProt P61964) (assay: biochemical). Conditions: Kd (M), FPA-based binding affinity at the WDR5 WIN site; IC50 converted to Kd by modified Cheng-Prusoff equation; average of two experiments.

Kd	Structure (SMILES)
5e-06 M	O=C(NCc1cccc(-c2cn3c(n2)CCC3)c1)c1ccc(F)cc1 [B3]
3.9e-06 M	O=C(NCc1cccc(-c2cn3c(n2)CCC3)c1)c1ccc(Cl)cc1Cl [B4]
2.28e-06 M	O=C(NCc1cccc(-c2cn3c(n2)CCC3)c1)c1cc(Cl)cc(Cl)c1 [B5]
1.19e-06 M	O=C(/C=C/c1ccccc1)NCc1cccc(-c2cn3c(n2)CCC3)c1 [B12]
1.86e-06 M	O=C(NCc1cccc(-c2cn3c(n2)CCC3)c1)c1ccc(Cl)nc1 [B17]
2.08e-07 M	O=C(Cc1cc(Cl)cc(Cl)c1)NCc1cccc(-c2cn3c(n2)CCC3)c1 [B18]
3.63e-06 M	O=C(CC1CCCCC1)NCc1cccc(-c2cn3c(n2)CCC3)c1 [B20]
7.04e-07 M	Cc1ccc(C(=O)NCc2cccc(-c3cn4c(n3)CCC4)c2)cc1C [B21, N-(3-(6,7-Dihydro-5H-pyrrolo[1,2-a]imidazol-2-yl)benzyl)-3,4-dimethylbenzamide]
3.83e-06 M	O=C(NCc1cccc(-c2cn3c(n2)CCC3)c1)Nc1ccccc1 [B22]
1.37e-06 M	CC(=O)N1CCC(C(=O)NCc2cccc(-c3cn4c(n3)CCC4)c2)CC1 [B25, 1-Acetyl-N-(3-(6,7-dihydro-5H-pyrrolo[1,2-a]imidazol-2-yl)benzyl)piperidine-4-carboxamide]
2.68e-06 M	O=C(NCc1cccc(-c2cn3c(n2)CCC3)c1)c1ccc(O)nc1 [B26]
4.19e-06 M	O=C(NCc1cccc(-c2cn3c(n2)CCC3)c1)C1CCNCC1 [B27]
3.52e-06 M	O=C(NCc1cccc(-c2cn3c(n2)CCC3)c1)Nc1cc(Cl)cc(Cl)c1 [B33]
5.61e-07 M	O=C(NCc1cccc(-c2cn3c(n2)CCC3)c1)C1CC1c1ccccc1 (stereo not drawn) [B39]
5.26e-07 M	O=C(NCc1cccc(-c2cn3c(n2)CCC3)c1)C1CCc2ccccc2C1 (stereo not drawn) [B42]
6.3e-07 M	O=C(NCc1cccc(-c2cn3c(n2)CCC3)c1)C1CCCNC1 (stereo not drawn) [B43]
2.71e-05 M	O=C(C1CCCNC1)N(Cc1cccc(-c2cn3c(n2)CCC3)c1)CC1CC1 (stereo not drawn) [B48]
8.08e-07 M	O=C(NCc1cccc(-c2cn3c(n2)CCC3)c1)c1ccc2c(c1)OCCO2 [B54]
1.18e-06 M	O=C(NCc1cccc(-c2cn3c(n2)CCC3)c1)c1ccc2c(c1)OCO2 [B56]

Continued, compound first:

Structure (SMILES)	Kd
O=C(CCc1ccccc1)NCc1cccc(-c2cn3c(n2)CCC3)c1 [B13]	2.3e-06 M
O=C(NCc1cccc(-c2cn3c(n2)CCC3)c1)c1cccc2cccnc12 [B14]	5.19e-06 M
O=C(CCc1ccccc1)N(Cc1cccc(-c2cn3c(n2)CCC3)c1)CC1CC1 [B19]	1.82e-06 M
COc1cccc(C(=O)N(Cc2cc(-c3cn4c(n3)CCC4)ccc2C)CC2CC2)c1 [B23]	3.35e-07 M
COc1cccc(NC(=O)NCc2cccc(-c3cn4c(n3)CCC4)c2)c1 [B24]	2.05e-07 M
COc1cccc(C(=O)N(Cc2cc(C)cc(-c3cn4c(n3)CCC4)c2)CC2CC2)c1 [B28]	7.24e-07 M
O=C(CCc1cccnc1)NCc1cccc(-c2cn3c(n2)CCC3)c1 [B30]	3.36e-06 M
COc1cccc(NC(=O)N(C)Cc2cccc(-c3cn4c(n3)CCC4)c2)c1 [B31]	3.24e-07 M
O=C(NCc1ccccc1)NCc1cccc(-c2cn3c(n2)CCC3)c1 [B34]	2.71e-06 M
COc1cccc(C(=O)N(Cc2ccccc2)Cc2cccc(-c3cn4c(n3)CCC4)c2)c1 [B35]	2.43e-07 M
COc1cccc(C(=O)N(Cc2cccc(-c3cn4c(n3)CCC4)c2)CC2CCCCC2)c1 [B36]	2.58e-07 M
Cc1cc(C(=O)N(C)Cc2cccc(-c3cn4c(n3)CCC4)c2)ccc1Cl [B38]	4.48e-07 M
COc1cccc(C(=O)N(Cc2cccc(-c3cn4c(n3)CCC4)c2)CC2CCCC2)c1 [B41]	2.95e-07 M
Cc1cc(C(=O)N(Cc2cccc(-c3cn4c(n3)CCC4)c2)CC2CC2)ccc1Cl [B44]	2.96e-05 M
Cc1cc(NC(=O)NCc2cccc(-c3cn4c(n3)CCC4)c2)ccc1Cl [B45]	3.91e-07 M
COc1ccc(C(=O)N(Cc2cc(Cl)cc(-c3cn4c(n3)CCC4)c2)CC2CC2)cc1OC [B46]	1.25e-07 M
O=C(Nc1cc(Cl)cc(Cl)c1)N(Cc1cccc(-c2cn3c(n2)CCC3)c1)CC1CC1 [B50]	4.8e-07 M
O=C(C1CC1c1ccccc1)N(Cc1cccc(-c2cn3c(n2)CCC3)c1)CC1CC1 (stereo not drawn) [B51]	4.85e-07 M
COc1ccc(C(=O)N(Cc2cccc(-c3cn4c(n3)CCC4)c2)C2CC2)cc1OC [B53]	1.14e-06 M
COc1ccc(C(=O)N(Cc2cccc(-c3cn4c(n3)CCC4)c2)C(C2CC2)C2CC2)cc1OC [B55]	5.25e-06 M
COc1ccc(C(=O)N(CCc2ccccc2)Cc2cccc(-c3cn4c(n3)CCC4)c2)cc1OC [B57]	4.46e-06 M
CC(=O)N1CCCC(C(=O)N(Cc2cccc(-c3cn4c(n3)CCC4)c2)CC2CC2)C1 (stereo not drawn) [B58]	7.9e-07 M

Structure (SMILES)	Kd
COc1ccc(C(=O)N(Cc2cccc(-c3cn4c(n3)CCC4)c2)CC2CC2)cc1OC [B59]	6.18e-07 M
O=C(Cc1cc(Cl)cc(Cl)c1)N(Cc1cccc(-c2cn3c(n2)CCC3)c1)CC1CC1 [B60, N-(Cyclopropylmethyl)-2-(3,5-dichlorophenyl)-N-(3-(6,7-dihydro-5H-pyrrolo[1,2-a]imidazol-2-yl)benzyl)acetamide]	2.85e-07 M
C[C@H](C(=O)N(Cc1cccc(-c2cn3c(n2)CCC3)c1)CC1CC1)c1ccccc1 [B61]	6.45e-07 M
O=C(C1CCc2ccccc2C1)N(Cc1cccc(-c2cn3c(n2)CCC3)c1)CC1CC1 (stereo not drawn) [B62]	2.81e-06 M
COc1ccc(C(=O)N(Cc2cccc(-c3cn4c(n3)CCC4)c2)Cc2ccc(F)c(F)c2)cc1OC [B63]	7.51e-07 M
COc1cccc(CN(Cc2cccc(-c3cn4c(n3)CCC4)c2)C(=O)c2ccc(OC)c(OC)c2)c1 [B64]	5.38e-07 M
COc1ccc(CN(Cc2cccc(-c3cn4c(n3)CCC4)c2)C(=O)c2ccc(OC)c(OC)c2)cc1 [B65]	4.15e-07 M
COc1ccc(C(=O)N(Cc2ccc(C)cc2)Cc2cccc(-c3cn4c(n3)CCC4)c2)cc1OC [B66]	5.53e-07 M
O=C(NCc1cccc(-c2cn3c(n2)CCC3)c1)C(c1ccccc1)c1ccccc1 [B67]	1.06e-06 M
COc1ccc(C(=O)N(Cc2cccc(-c3cn4c(n3)CCC4)c2)C(C)c2cccc(Cl)c2)cc1OC (stereo not drawn) [B68]	3.72e-06 M
COC(=O)c1cc(CN(CC2CC2)C(=O)c2ccc(OC)c(OC)c2)cc(-c2cn3c(n2)CCC3)c1 [B69]	3.05e-07 M
COc1ccc(C(=O)N(Cc2cccc(-c3cn4c(n3)CCC4)c2)C(C)c2ccccc2)cc1OC (stereo not drawn) [B70]	5.98e-06 M
CN(Cc1cccc(-c2cn3c(n2)CCC3)c1)C(=O)Cc1cc(Cl)cc(Cl)c1 [B71]	6.12e-07 M
CC(C)N(Cc1cccc(-c2cn3c(n2)CCC3)c1)C(=O)Nc1cc(Cl)cc(Cl)c1 [B72]	3.01e-07 M
CC(C)N(Cc1cccc(-c2cn3c(n2)CCC3)c1)C(=O)Cc1cc(Cl)cc(Cl)c1 [B73]	1.9e-06 M
CN(Cc1cccc(-c2cn3c(n2)CCC3)c1)C(=O)Nc1cc(Cl)cc(Cl)c1 [B74]	8.21e-07 M
CC(C(=O)N(Cc1cccc(-c2cn3c(n2)CCC3)c1)C(C)C)c1cc(Cl)cc(Cl)c1 (stereo not drawn) [B75]	4.1e-07 M
CCOc1cccc(C(=O)NCc2cccc(-c3cn4c(n3)CCC4)c2)c1 [B78]	1.48e-07 M
CCOc1cccc(C(=O)N(Cc2cccc(-c3cn4c(n3)CCC4)c2)CC2CC2)c1 [B79]	4.91e-07 M
COc1cccc(C(=O)N(Cc2cccc(-c3cn4c(n3)CCC4)c2)C(C2CC2)C2CC2)c1 [B81]	1.18e-07 M
O=C(Cc1ccc(Cl)c(F)c1)NCc1cccc(-c2cn3c(n2)CCC3)c1 [B82]	5.02e-07 M
COc1cccc(C(=O)N(Cc2cccc(-c3cn4c(n3)CCC4)c2)C(C)c2cccc(Cl)c2)c1 (stereo not drawn) [B83]	4.51e-07 M
